Measurements from patent publication US9241913B2, “Polysialic acid-based N-trimethyl chitosan gel nanoparticles for systemic drug delivery” (Syracuse University, priority 2011, dated 2016).

Assays:
[1] = system: MH7A rheumatoid arthritis synovial fibroblast cell line; experiment: WST-8 cytotoxicity assay; format: cell-based; details: MH7A cells, 24 hours incubation, WST-8 absorbance at 450 nm
Method: WST-8 assay (Cayman Chemical Company, Ann Arbor, Mich.) was conducted on the MH7A rheumatoid arthritis synovial fibroblast cell line, following the manufacturer's instructions, to assess the cytotoxicity of the PSA-TMC nanoparticles. NADH produced within the mitochondria reduces WST-8 tetrazolium salt to formazan dye, which can be quantified by absorbance measurements at 450 nm. Cells were seeded into 96-well cell culture plate (2×10^4 cells per well) and cultured for 24 hr at 37° C., 5% CO2. PSA-TMC (0.5:1) was added to yield a series of concentrations from 0.3125 to ˜20 mg/mL, and the cultures were incubated for an additional 24 hours. 10 μL of WST-8 solution were added to each well. After a 90 minute incubation period, absorbance was measured with a Synergy 2 multimode microplate reader (BioTek Instruments, Winooski, Vt.) at 450 nm. The cytotoxicities of TMC TPP and alone were also evaluated following the above procedure. Untreated MH7A synovial fibroblast cultures were used as controls. Relative absorbance versus concentration was plotted for each set of additives, and a four parameter logistic, constructed with Kaleidagraph software, was used to fit the data to determine the IC50 values. Each experiment was repeated independently at least two times.

[2] = orally administered, patients; cited from earlier work
rheumatoid arthritis = details: cited from earlier work

| Structure (SMILES) | IC50 [1] [µg/mL] | elimination half-lives [2] | reduction in the risk of early mortality (rheumatoid arthritis; RA patients treated with methotrexate) [%] | reduction in deaths due to RA related cardiovascular disease (rheumatoid arthritis; individuals prescribed methotrexate) [%] | patients who developed severe fibrosis or cirrhosis (rheumatoid arthritis; over 55 months of treatment, rheumatoid arthritis) [%] |
| --- | --- | --- | --- | --- | --- |
| O=P(O)(O)OP(=O)(O)OP(=O)(O)O [TPP, sodium tripolyphosphate] | 220 ± 40 |  |  |  |  |
| CN(Cc1cnc2nc(N)nc(N)c2n1)c1ccc(C(=O)N[C@@H](CCC(=O)O)C(=O)O)cc1 [methotrexate, Methotrexate] |  | six to fifty-five | 60 | 70 | 3 |
